# From patent publication EP2042492A1, “Novel Iminooxazole and Iminothiazole Compounds” (Bayer CropScience AG, priority 2007, dated 2009)
# Columns and labels:
# Myzus persicae = Myzus persicae - test (MYZUPE spray application); type: in vivo; settings: application rate of 500g/ha, spray on Chinese cabbage leaf-disks infected with all instars of green peach aphid, 100% = all aphids killed
# Description: Myzus persicae - test; (MYZUPE spray application)
# Chinese cabbage (Brassica pekinesis) leaf-disks infected with all instars of the green peach aphid (Myzus persicae), are sprayed with a preparation of the active ingredient at the desired concentration.
# After the specified period of time, mortality in % is determined. 100% means that all aphids have been killed; 0% means that none of the aphids have been killed.
# [1] = LogP via HPLC according to EEC directive 79/831 Annex V.A8 (gradient method, acetonitrile / 0,1 % aqueous formic acid); type: physicochemical; settings: read-out: lgP (HCOOH)
# Description: Step 2: A stirred mixture of 58 mg (0,24 mmol) of 1-[(1S)-1-(4-fluorophenyl)ethyl]-3-(2-hydroxyethyl)thiourea (preparation step 1) and 27 mg (0,29 mmol) of 1-chloro-propan-2-one in ethanol was refluxed for 18 hours. The solvent was evaporated under reduced pressure and the residue was heated to 70 °C with 25 % aqueous NH4OH solution. This aqueous solution was cooled to ambient temperature and extracted twice with dichloromethane. The organic layer was separated, dried with sodium sulfate and filtered off. The solvent was evaporated under reduced pressure. The residue was purified by chromatography (silica gel; cyclohexane/ethyl acetate = vol. 2:1) to afford 42 mg of 2-[(2E)-2-{[(1S)-1-(4-fluorophenyl)ethyl]imino}-4-methyl-1,3-thiazol-3(2H)-yl]ethanol. Yield: 42 mg (62,3 % of theory). logP (HCOOH) = 0,89 LogP values according EEC directive 79/831 Annex V.A8 via HPLC (gradient method, acetonitrile / 0,1 % aqueous formic acid).
# Phaedon cochleariae = Phaedon cochleariae - test (PHAECO spray application); type: in vivo; settings: application rate of 500g/ha, sprayed Chinese cabbage leaf-disks infested with mustard beetle larvae, 100 % = all beetle larvae killed
# Description: Phaedon cochleariae - test; (PHAECO spray application)
# (§1) To produce a suitable preparation of active compound, 1 part by weight of active compound is mixed with the stated amount of solvent and emulsifier, and the concentrate is diluted with emulsifier-containing water to the desired concentration.
# Chinese cabbage (Brassica pekinesis) leaf-disks are sprayed with a preparation of the active ingredient of the desired concentration. Once dry, the leaf disks are infested with mustard beetle larvae (Phaedon cochleariae).
# After the specified period of time, mortality in % is determined. 100 % means that all beetle larvae have been killed and 0 % means that none of the beetle larvae have been killed.
# Tetranychus urticae = Tetranychus urticae - test; OP-resistant (TETRUR spray application); type: in vivo; settings: application rate of 500g/ha, spray on French beans infested with all stages of two spotted spidermite, 100% = all spider mites killed
# Description: Tetranychus urticae - test; OP-resistant (TETRUR spray application)
# as §1
# French beans (Phaseolus vulgaris) which are heavily infested with all stages of the two spotted spidermite (Tetranychus urticae), are sprayed with a preparation of the active ingredient at the desired concentration.
# After the specified period of time, mortality in % is determined. 100% means that all spider mites have been killed and 0% means that none of the spider mites have been killed.
chromatographic logP [1],SMILES,mortality at 500 g/ha (Myzus persicae),mortality at 500 g/ha (Phaedon cochleariae),mortality at 500 g/ha (Tetranychus urticae)
0.85,Cc1csc(=N[C@@H](C)c2ccccc2)n1CCO [Example 2-17],≥ 80%,,
0.96,CCc1csc(=N[C@@H](C)c2ccccc2)n1CCO [Example 2-18],≥ 80%,,
1.07,CC(C)c1csc(=N[C@@H](C)c2ccccc2)n1CCO [Example 2-19],≥ 80%,,
1.13,Cc1sc(=N[C@@H](C)c2ccccc2)n(CCO)c1C [Example 2-21],≥ 80%,,
1.01,C[C@H](N=c1scc(C2CC2)n1CCO)c1ccccc1 [Example 2-22],≥ 80%,,
1.26,C[C@H](N=c1scc(C2CCCC2)n1CCO)c1ccccc1 [Example 2-23],≥ 80%,,
1.19,C[C@H](N=c1scc(-c2ccccc2)n1CCO)c1ccccc1 [Example 2-25],≥ 80%,,
0.85,C[C@H](N=c1scc(-c2cccnc2)n1CCO)c1ccccc1 [Example 2-27],≥ 80%,,
1.12,C[C@H](N=c1scc(C2(Cl)CC2)n1CCO)c1ccccc1 [Example 2-29],≥ 80%,,
0.89,"Cc1cs/c(=N/[C@@H](C)c2ccc(F)cc2)n1CCO [Example 2-152, 2-[(2E)-2-{[(1S)-1-(4-fluorophenyl)ethyl]imino}-4-methyl-1,3-thiazol-3(2H)-yl]ethanol]",≥ 80%,,
1,CCc1csc(=N[C@@H](C)c2ccc(F)cc2)n1CCO [Example 2-153],≥ 80%,≥ 80%,
1.12,CC(C)c1csc(=N[C@@H](C)c2ccc(F)cc2)n1CCO [Example 2-154],≥ 80%,,
1.03,C[C@H](N=c1scc(C2CC2)n1CCO)c1ccc(F)cc1 [Example 2-157],≥ 80%,,
1.31,C[C@H](N=c1scc(C2CCCC2)n1CCO)c1ccc(F)cc1 [Example 2-158],≥ 80%,,
1.26,C[C@H](N=c1scc(-c2ccccc2)n1CCO)c1ccc(F)cc1 [Example 2-160],≥ 80%,,
0.9,C[C@H](N=c1scc(-c2cccnc2)n1CCO)c1ccc(F)cc1 [Example 2-162],≥ 80%,,
1.14,C[C@H](N=c1scc(C2(Cl)CC2)n1CCO)c1ccc(F)cc1 [Example 2-164],≥ 80%,,
0.89,COc1ccc([C@H](C)N=c2scc(C)n2CCO)cc1 [Example 2-272],,,
1,CCc1csc(=N[C@@H](C)c2ccc(OC)cc2)n1CCO [Example 2-273],,,

chromatographic logP [1],SMILES,mortality at 500 g/ha (Myzus persicae),mortality at 500 g/ha (Phaedon cochleariae),mortality at 500 g/ha (Tetranychus urticae)
1.09,COc1ccc([C@H](C)N=c2scc(C(C)C)n2CCO)cc1 [Example 2-274],,,
1.05,COc1ccc([C@H](C)N=c2scc(C3CC3)n2CCO)cc1 [Example 2-277],,,
1.33,COc1ccc([C@H](C)N=c2scc(C3CCCC3)n2CCO)cc1 [Example 2-278],,,
1.26,COc1ccc([C@H](C)N=c2scc(-c3ccccc3)n2CCO)cc1 [Example 2-280],,,
0.9,COc1ccc([C@H](C)N=c2scc(-c3cccnc3)n2CCO)cc1 [Example 2-282],,,
1.14,COc1ccc([C@H](C)N=c2scc(C3(Cl)CC3)n2CCO)cc1 [Example 2-284],,,
1.28,CC(C)c1csc(=N[C@@H](C)c2ccc(Cl)cc2)n1CCO [Example 2-289],≥ 80%,,
1.42,C[C@H](N=c1scc(C2CCCC2)n1CCO)c1ccc(Cl)cc1 [Example 2-293],≥ 80%,,
1.38,C[C@H](N=c1scc(-c2ccccc2)n1CCO)c1ccc(Cl)cc1 [Example 2-295],≥ 80%,,
1.03,C[C@H](N=c1scc(-c2cccnc2)n1CCO)c1ccc(Cl)cc1 [Example 2-297],≥ 80%,,
1.33,C[C@H](N=c1scc(C2(Cl)CC2)n1CCO)c1ccc(Cl)cc1 [Example 2-299],≥ 80%,,
0.98,CC[C@H](N=c1scc(C)n1CCO)c1ccccc1 [Example 2-362],≥ 80%,,
1.09,CCc1csc(=N[C@@H](CC)c2ccccc2)n1CCO [Example 2-363],≥ 80%,,
1.19,CC[C@H](N=c1scc(C(C)C)n1CCO)c1ccccc1 [Example 2-364],≥ 80%,,
1.14,CC[C@H](N=c1scc(C2CC2)n1CCO)c1ccccc1 [Example 2-367],≥ 80%,,
1.4,CC[C@H](N=c1scc(C2CCCC2)n1CCO)c1ccccc1 [Example 2-368],≥ 80%,,
1.33,CC[C@H](N=c1scc(-c2ccccc2)n1CCO)c1ccccc1 [Example 2-370],≥ 80%,,
1,CC[C@H](N=c1scc(-c2cccnc2)n1CCO)c1ccccc1 [Example 2-372],≥ 80%,,
1.19,CC[C@H](N=c1scc(C2(Cl)CC2)n1CCO)c1ccccc1 [Example 2-374],≥ 80%,,

SMILES,chromatographic logP [1],mortality at 500 g/ha (Myzus persicae),mortality at 500 g/ha (Phaedon cochleariae),mortality at 500 g/ha (Tetranychus urticae)
Cc1csc(=N[C@@H](C)c2ccc(Cl)cc2)n1CCO [Example 2-287],1.03,≥ 80%,,≥ 80%
CCc1csc(=N[C@@H](C)c2ccc(Cl)cc2)n1CCO [Example 2-288],1.14,≥ 80%,,≥ 80%
